Experimental findings from ChEMBL document CHEMBL4665878, “A new naphthalene derivative with anti-amyloidogenic activity as potential therapeutic agent for Alzheimer's disease” (Bioorg Med Chem, 2020) are described below.

The source made the active and inactive calls. No cut-off for these calls is given here.

A word on the IC50: it is the point on the concentration scale where inhibition reaches its midpoint. The term logP denotes a log measure of how a compound divides between an organic and an aqueous phase.

The subject of one data set is Astrocyte. Kind of data set: Cytotoxicity against C57BL/J6 mouse astrocyte assessed as cell viability after 24 hrs by MTT assay. The format is cell-based. On the technique in general: Tetrazolium dyes change colour on reduction, which living cells bring about.
Data set [1] concerns the target Amyloid-beta precursor protein (Homo sapiens) (UniProt P05067). Kind of data set: Inhibition of Abeta(1 to 42) peptide aggregation in immortalized human microglia with SV40 assessed as reduction in fluorescence intensity at 1 nM and measured after 48 hrs by thiazine red staining method. The format is tissue-based.
Data set [2] shares this target. Kind of data set: Inhibition of Abeta(1 to 42) peptide aggregation in immortalized human microglia with SV40 assessed as reduction in fluorescence intensity at 0.001 to 50 micromol/L and measured after 48 hrs by thiazine red staining method. Particulars: dose micromol/L 0.001-50, time 48.0 hrs. It counts as tissue-based.
Data set [3] concerns Mus musculus. Kind of data set: Reduction in amyloid beta plaques in po dosed 3xTg-AD transgenic mouse brain hippocampus subiculum using BAM-10 primary antibody by immunohistochemical assay relative to 3xTg-AD-non T. The format is functional, organism-based.
The subject of data set [4] is Mus musculus. Kind of data set: Cognitive enhancing effect in 3xTg-AD transgenic mouse harboring human PS1M146V/APPSWE/tauP301L assessed as number of entries to the target quadrant at 1 mg/kg, po for 8 weeks measured by Morris water maze test. The format is functional, organism-based.
Data set [5] relates to Mus musculus. Kind of data set: Cognitive enhancing effect in female 3xTg-AD transgenic mouse harboring human PS1M146V/APPSWE/tauP301L assessed as time spent in the target quadrant at 1 mg/kg, po for […] by Morris water maze test. The format is functional, organism-based. Particulars: time 8.0 weeks.
In data set [6] the test system is Mus musculus. Kind of data set: Cognitive enhancing effect in female 3xTg-AD transgenic mouse harboring human PS1M146V/APPSWE/tauP301L assessed as latency to enter to the target quadrant at 1 mg/kg, po for 8 weeks by Morris water maze test. It counts as functional, organism-based.
Data set [7] relates to Mus musculus. Kind of data set: Cognitive enhancing effect in female 3xTg-AD transgenic mouse harboring human PS1M146V/APPSWE/tauP301L assessed as escape latency time at 1 mg/kg, po for 8 weeks by Morris water maze test. It counts as functional, organism-based.
Data set [8] can be described thus: Ex vivo binding affinity to amyloid beta (1 to 42) in 3xTg-AD transgenic APP/PS1 mouse brain section assessed as binding constant after 40 mins by autoradiography. The format is tissue-based.
Data set [9] in a line: Octanol/PBS partition co-efficient, log P of compound. The format is physicochemical.
Data set [10] has as its target Amyloid-beta precursor protein (Homo sapiens) (UniProt P05067). Kind of data set: Inhibition of Abeta(1 to 42) peptide aggregation in immortalized human microglia with SV40 assessed as reduction in fluorescence intensity at 1 uM and measured after 48 hrs by thiazine red staining method.
Data set [11] concerns Mus musculus. Kind of data set: Reduction in amyloid fibril elongation in po dosed 3xTg-AD transgenic mouse brain hippocampus subiculum using BAM-10 primary antibody by immunohistochemical assay relative to 3xTg-AD-non T. It counts as functional, organism-based.

Chain of Amyloid-beta precursor protein (Homo sapiens) (P05067 whole entry): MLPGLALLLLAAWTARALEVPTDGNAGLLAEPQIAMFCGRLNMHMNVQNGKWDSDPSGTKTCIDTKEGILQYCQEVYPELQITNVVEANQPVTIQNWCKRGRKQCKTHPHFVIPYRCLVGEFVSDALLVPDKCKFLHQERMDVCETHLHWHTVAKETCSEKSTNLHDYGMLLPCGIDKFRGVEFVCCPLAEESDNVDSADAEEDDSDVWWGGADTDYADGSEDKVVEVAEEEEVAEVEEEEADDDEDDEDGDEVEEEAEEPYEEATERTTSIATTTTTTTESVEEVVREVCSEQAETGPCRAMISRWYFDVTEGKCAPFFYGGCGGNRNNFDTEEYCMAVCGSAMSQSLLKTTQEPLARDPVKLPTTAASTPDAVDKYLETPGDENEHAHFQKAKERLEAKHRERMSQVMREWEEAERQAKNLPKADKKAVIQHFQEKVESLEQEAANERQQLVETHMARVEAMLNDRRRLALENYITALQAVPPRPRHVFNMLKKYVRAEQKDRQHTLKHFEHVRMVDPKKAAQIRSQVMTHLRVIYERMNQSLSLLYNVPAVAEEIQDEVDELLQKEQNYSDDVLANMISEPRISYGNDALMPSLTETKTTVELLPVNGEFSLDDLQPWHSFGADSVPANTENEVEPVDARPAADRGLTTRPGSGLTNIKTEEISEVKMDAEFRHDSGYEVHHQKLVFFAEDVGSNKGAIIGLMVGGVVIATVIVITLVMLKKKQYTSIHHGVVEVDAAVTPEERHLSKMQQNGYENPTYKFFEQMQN

Consider `O=C(O)CCCCCNC(=O)CCC(=O)Nc1cccc2ccccc12`, for which the IC50 in the data set on Astrocyte was 433 µM. Besides, the inhibition entry in [1] and in [2] was “Active” in each case.
With `CSC(=S)NCCNC(=O)CCC(=O)Nc1cccc2ccccc12`, the result in the data set with Mus musculus [3] and with Mus musculus [4] was Active. In addition, the IC50 in the data set with Astrocyte is 195 µM. Moreover, the outcome in the data set on Mus musculus [5], with Mus musculus [6] and in the data set with Mus musculus [7] was inactive. Besides, in [8], the Kd was 0.0158 µM. In addition, the logP in data set [9] was determined as 1.77. Moreover, the inhibition result (in data set [10]; in [2]; in the data set with Mus musculus [11]) was “Active” throughout.
Turning to `CNc1ccc(/C=C/c2ccc(OCCOCCOCCF)cc2)cc1` [FLORBETABEN], the Kd in [8] was found to be 0.016 µM.
Take `O=C(O)CCNC(=O)CCC(=O)Nc1cccc2ccccc12`: the IC50 with Astrocyte is 874 µM. The inhibition result in data set [1] and in data set [2] was “Active” in each case.
